Measurements from ChEMBL document CHEMBL4823324, “Discovery of BMS-986318, a Potent Nonbile Acid FXR Agonist for the Treatment of Nonalcoholic Steatohepatitis” (ACS Med Chem Lett, 2021).

Assays:
[1] = biological target: T1, Nuclear receptor ROR-gamma (Homo sapiens, UniProt P51449); test: Displacement of [3H]25-hydroxycholesterol from human N-terminal His-tagged RORgammaT LBD (262 to 508 residues) expressed in Escherichia coli preincubated for 10 mins followed by addition [3H]25-OH cholesterol and measured after 10 mins by scintillation proximity assay
T1 sequence (P51449 whole entry): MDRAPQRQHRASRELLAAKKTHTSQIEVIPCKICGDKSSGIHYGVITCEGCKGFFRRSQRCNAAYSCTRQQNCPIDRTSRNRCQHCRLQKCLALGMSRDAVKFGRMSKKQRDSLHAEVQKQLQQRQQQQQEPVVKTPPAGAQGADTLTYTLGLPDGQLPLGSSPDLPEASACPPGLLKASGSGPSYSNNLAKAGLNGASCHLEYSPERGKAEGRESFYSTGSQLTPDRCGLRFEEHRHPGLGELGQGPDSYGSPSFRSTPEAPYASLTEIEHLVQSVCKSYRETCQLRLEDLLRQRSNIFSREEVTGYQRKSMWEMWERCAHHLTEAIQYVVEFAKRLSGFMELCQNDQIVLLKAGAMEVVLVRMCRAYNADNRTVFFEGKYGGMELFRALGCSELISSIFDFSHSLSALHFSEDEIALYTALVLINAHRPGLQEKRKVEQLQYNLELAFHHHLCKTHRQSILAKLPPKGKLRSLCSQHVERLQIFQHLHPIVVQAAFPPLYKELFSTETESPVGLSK

[2] = Metabolic stability in human liver microsomes assessed as half life; assay type: ADME, Microsome
[3] = biological target: T1, Nuclear receptor ROR-gamma; test: Antagonist activity at human RORgammaT co-expressed with Gal4-luciferase reporter in human Jurkat cells incubated for 18 hrs by Steady-Glo luciferase reporter based luminescence analysis; assay type: cell-based
[4] = Clearance in C57B6 mouse at 1 mg/kg, iv; assay type: ADME, organism-based; details: in vivo
[5] = biological target: T2, Oxysterols receptor LXR-alpha (Homo sapiens, UniProt Q13133); test: Activation of human LXRalpha co-expressed with TK-luciferase reporter in African green monkey CV-1 cells incubated for overnight by Steady-Glo luciferase reporter gene based luminescence analysis; assay type: cell-based
T2 sequence (Q13133 whole entry): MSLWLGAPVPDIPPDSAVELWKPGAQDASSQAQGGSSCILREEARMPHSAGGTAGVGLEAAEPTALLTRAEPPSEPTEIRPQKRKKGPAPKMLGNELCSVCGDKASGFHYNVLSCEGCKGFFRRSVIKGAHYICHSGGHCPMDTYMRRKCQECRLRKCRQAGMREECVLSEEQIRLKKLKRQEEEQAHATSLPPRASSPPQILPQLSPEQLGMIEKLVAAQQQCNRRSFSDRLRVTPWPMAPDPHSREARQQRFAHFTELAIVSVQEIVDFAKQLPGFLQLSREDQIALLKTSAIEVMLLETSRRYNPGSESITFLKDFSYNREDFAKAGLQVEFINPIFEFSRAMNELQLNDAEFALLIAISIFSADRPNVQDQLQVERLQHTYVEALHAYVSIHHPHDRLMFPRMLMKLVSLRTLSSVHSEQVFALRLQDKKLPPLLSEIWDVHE

[6] = biological target: T3, Androgen receptor (Homo sapiens, UniProt P10275); test: Activation of androgen receptor (unknown origin) by fluorescence polarization based competition assay
T3 sequence (P10275 whole entry): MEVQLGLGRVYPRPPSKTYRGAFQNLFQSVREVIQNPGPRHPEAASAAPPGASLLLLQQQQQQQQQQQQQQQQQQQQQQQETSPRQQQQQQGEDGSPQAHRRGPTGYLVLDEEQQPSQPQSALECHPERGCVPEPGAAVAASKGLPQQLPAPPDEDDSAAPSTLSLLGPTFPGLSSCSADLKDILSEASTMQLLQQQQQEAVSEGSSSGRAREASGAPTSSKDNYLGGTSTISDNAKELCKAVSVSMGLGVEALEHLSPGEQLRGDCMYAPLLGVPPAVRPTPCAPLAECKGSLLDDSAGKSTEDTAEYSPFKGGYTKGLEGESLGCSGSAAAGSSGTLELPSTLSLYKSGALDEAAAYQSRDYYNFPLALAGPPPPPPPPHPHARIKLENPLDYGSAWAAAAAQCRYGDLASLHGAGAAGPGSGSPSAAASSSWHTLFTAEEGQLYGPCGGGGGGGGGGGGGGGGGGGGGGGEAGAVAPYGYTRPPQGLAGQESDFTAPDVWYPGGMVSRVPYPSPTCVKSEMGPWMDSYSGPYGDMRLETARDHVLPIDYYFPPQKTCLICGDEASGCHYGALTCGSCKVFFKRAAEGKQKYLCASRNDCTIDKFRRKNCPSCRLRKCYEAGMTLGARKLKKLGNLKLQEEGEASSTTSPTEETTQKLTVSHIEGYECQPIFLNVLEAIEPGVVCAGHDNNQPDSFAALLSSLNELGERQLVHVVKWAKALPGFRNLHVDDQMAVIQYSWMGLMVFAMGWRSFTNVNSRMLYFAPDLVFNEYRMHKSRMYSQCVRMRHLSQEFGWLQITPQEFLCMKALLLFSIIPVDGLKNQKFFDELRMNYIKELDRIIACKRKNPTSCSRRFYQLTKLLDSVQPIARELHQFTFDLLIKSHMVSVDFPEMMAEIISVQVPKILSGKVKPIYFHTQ

[7] = biological target: T4, Peroxisome proliferator-activated receptor alpha (Homo sapiens, UniProt Q07869); test: Activation of PPARalpha LBD (unknown origin) co-expressed with Gal4UAS-luciferase reporter in HEK293 cells incubated for 24 hrs by Steady-Glo luciferase reporter gene based luminescence analysis; assay type: cell-based
T4 sequence (Q07869 whole entry): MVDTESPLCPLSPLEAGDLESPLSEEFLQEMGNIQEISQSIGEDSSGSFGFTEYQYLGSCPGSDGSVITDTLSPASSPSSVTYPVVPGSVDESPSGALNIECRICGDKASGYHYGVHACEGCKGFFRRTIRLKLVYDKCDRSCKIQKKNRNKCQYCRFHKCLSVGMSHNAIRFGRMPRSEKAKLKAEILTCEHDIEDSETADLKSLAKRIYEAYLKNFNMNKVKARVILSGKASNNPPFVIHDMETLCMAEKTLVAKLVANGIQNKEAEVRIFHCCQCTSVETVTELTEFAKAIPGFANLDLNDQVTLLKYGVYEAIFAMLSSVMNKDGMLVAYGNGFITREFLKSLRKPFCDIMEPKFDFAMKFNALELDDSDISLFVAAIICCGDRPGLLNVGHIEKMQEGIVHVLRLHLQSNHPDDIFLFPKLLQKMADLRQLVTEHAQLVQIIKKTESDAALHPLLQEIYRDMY

IC50 [1]: > 40 µM
half-life [2]: > 2 h
IC50 [3]: > 40 µM
clearance [4]: 3.8 mL/min/kg
EC50 [5]: > 40 µM
EC50 [6]: > 40 µM
EC50 [7]: > 40 µM
SMILES: O=C(O)c1cc(C(F)(F)F)c2cc(N3CCC4(C=C(c5c(-c6c(Cl)cncc6Cl)noc5C5CC5)C4)CC3)ccc2n1
